The text below walks through data of US20260354376A1, “AGENT FOR IMPROVING ENVIRONMENTAL STRESS TOLERANCE” (OAT Agrio Co., Ltd., priority 2023, published 2026).

Holding throughout (assay type): in vivo
Assay [1] concerns wheat (variety: Chikugoizumi). In words: Test Example 11: dryness stress tolerance improvement on wheat (weight of grains per plant). As to conditions: dryness stress (irrigation about half), 0.1%. From the text: In Example 11, wheat (variety: Chikugoizumi) was sown in 1/5000a Wagner pots and cultivated at a density of 2 plants/pot. Next, all pots were irrigated with the same amount of tap water until the ear-emergence stage of wheat, and irrigation with a chemical solution was started after the ear emergence. In this test, dryness stress was induced by reducing the amount of irrigation to about half of the normal amount. After yellow ripening of the wheat was confirmed, the aboveground portions of the wheat were harvested, and the weight of grains per plant was investigated. A 30 ppm aqueous solution of the paprika pigment was used as the chemical solution.
In Comparative Example 13, the same test as in the test of Example 11 using the paprika pigment was repeated, except for using water for irrigation after the ear emergence.
In Reference Example 10, the same test as in the test of Example 11 using the paprika pigment was repeated, except for using a commercially available material for improving salt tolerance (material B) at the dilution factor shown in Table 11. […]
The results of Example 11, and Reference Examples 10 and 11 are expressed as the ratio (%) with respect to the result of Comparative Example 13 (untreated group) taken as 100.

In assay [2] the test system is paddy rice (Koshihikari). The assay can be described thus: Test Example 3: growth-promoting effect in rice hydroponics (regenerated root length, 25 °C). As to conditions: 25° C. (Growth Promotion), 6 days, untreated = 100. As for the experimental part: In Example 3, a liquid culture medium prepared by diluting OAT House Fertilizer (registered trademark) Formulation A, manufactured by OAT Agrio Co., Ltd., was placed in an erlenmeyer flask. The capsanthin concentration in the paprika pigment (manufactured by San-Ei Gen F. F. I., Inc.) was measured by high performance liquid chromatography at General Incorporated Association Japan Food Research Laboratories. As a result, about 221 mg of capsanthin was contained in 100 g of the paprika pigment. The measurement conditions were as follows. • Model: LC-20 (manufactured by Shimadzu Corporation) • Detector: UV-VIS absorption spectrometer SPD-20AV (manufactured by Shimadzu Corporation) • Column: Shim-pack CLC-SIL (M) (size: 4.6 mm×150 mm) (manufactured by Shimadzu Corporation) • Column temperature: 30 °C. • Mobile phase: mixture of hexane and acetone (81:19) • Flow rate: 1.1 mL/min • Measurement wavelength: 474 nm • Injection volume: 30 μL
Next, paddy rice (Koshihikari) was grown to seedlings in culture soil, and then the roots of the rice were cut to a predetermined length. Five of the cut seedlings were inserted into each erlenmeyer flask containing the above-described liquid culture medium. Then, after cultivation at 25 °C for 6 days, the length of the roots of the rice was measured, and the length of regenerated roots was calculated.
In Comparative Example 5, the same test as in Example 3 was repeated, except for using the liquid culture medium not containing the capsanthin or paprika pigment.
In Reference Example 3, the same test as in Example 3 was repeated, except for using the liquid culture medium containing a commercially available material for improving high-temperature tolerance (material A) at the dilution factor shown in Table 3.
The dilution factor is shown for Reference Example 3, because the content of the active ingredient in the commercially available product is unknown.
The results of Example 3 and Reference Example 3 are expressed as the ratio (%) with respect to the result of Comparative Example 5 (untreated group) taken as 100.

In assay [3] the test system is paddy rice (Koshihikari). The assay can be described thus: Test Example 4: high-temperature stress tolerance improvement in rice hydroponics (regenerated root length, 35 °C). The conditions noted are these: for Ratio to Untreated Group (length of regenerated roots): 35 °C (High-Temperature Stress), 6 days, untreated = 100. Here is the method:
In Example 4, a liquid culture medium prepared by diluting OAT House Fertilizer (registered trademark) Formulation A, manufactured by OAT Agrio Co., Ltd., was placed in an erlenmeyer flask. Then, the above-described capsanthin or paprika pigment was added to the liquid culture medium to give the concentrations shown in Table 4. Next, paddy rice (Koshihikari) was grown to seedlings in culture soil, and then the roots were cut to a predetermined length. Five of the seedlings were inserted into each erlenmeyer flask. Then, after cultivation at 35 °C for 6 days, the length of the roots of the rice was measured, and the length of regenerated roots was calculated.
In Comparative Example 6, the same test as in Example 4 was repeated, except for using the liquid culture medium not containing the capsanthin or paprika pigment.
The results of Example 4 are expressed as the ratio (%) with respect to the result of Comparative Example 6 (untreated group) taken as 100.

In assay [4] the test system is paddy rice (Koshihikari). The assay can be described thus: Test Example 5: salt stress tolerance improvement in rice hydroponics (regenerated root length, sodium chloride). The conditions noted are these: sodium chloride 120 mM, 6 days, untreated = 100. As for the experimental part:
In Example 5, a liquid culture medium prepared by diluting OAT House Fertilizer (registered trademark) Formulation A, manufactured by OAT Agrio Co., Ltd., was placed in an erlenmeyer flask. Then, sodium chloride was added to the liquid culture medium to give a final concentration of 120 mM, and the capsanthin or paprika pigment was added to the liquid culture medium to give the concentrations shown in […]. Next, paddy rice (Koshihikari) was grown to seedlings in culture soil, and then the roots were cut to a predetermined length. Five of the seedlings were inserted into each erlenmeyer flask. Then, after cultivation for 6 days, the length of the roots of the rice was measured, and the length of regenerated roots was calculated.
In Comparative Example 7, the same test as in Example 5 was repeated, except for using the liquid culture medium not containing the capsanthin or paprika pigment.
In Reference Example 4, the same test as in Example 5 was repeated, except for using the liquid culture medium containing a commercially available material for improving salt tolerance (material B) at the dilution factor shown in Table 5, instead of the capsanthin and paprika pigment.
The results of Example 5 and Reference Example 4 are expressed as the ratio (%) with respect to the result of Comparative Example 7 (untreated group) taken as 100.

For `CC(=O)O` [Potassium Acetate, potassium acetate], the “Weight of Grains, Average” value in assay [1] (untreated 7.3) was 9.3 g DW/Plant. Also, the “Weight of Grains, Ratio to Untreated Group” value in assay [1] (untreated = 100) is 126%.
Turning to `CC1=C(/C=C/C(C)=C/C=C/C(C)=C/C=C/C=C(C)/C=C/C=C(C)/C=C/C(=O)[C@]2(C)C[C@@H](O)CC2(C)C)C(C)(C)C[C@H](O)C1` [Capsanthin, capsanthin], the “Ratio to Untreated Group (length of regenerated roots)” value (“Ratio … (length of regenerated roots)” for short) in assay [2] (capsanthin 0.00000663 ppm) turned out to be 104%; in assay [2] (capsanthin 0.0000663 ppm), 102%; in assay [2] (capsanthin 0.000221 ppm), 102%; in assay [2] (capsanthin 0.00221 ppm), 108%; in assay [3] (capsanthin 0.00000663 ppm), 115%; in assay [3] (capsanthin 0.0000663 ppm), 132%. The “Ratio … (length of regenerated roots)” value in assay [3] (capsanthin 0.000221 ppm) is reported as 113%; in assay [3] (capsanthin 0.00221 ppm), 122%; in assay [3] (capsanthin 0.00663 ppm), 114%; in assay [3] (capsanthin 0.0221 ppm) it was 109%; in assay [3] (capsanthin 0.0663 ppm), 140%; in assay [4] (capsanthin 0.0000663 ppm), 104%. For the same compound, the “Ratio … (length of regenerated roots)” value in assay [4] (capsanthin 0.000221 ppm) was 103%; in assay [4] (capsanthin 0.00221 ppm) it was 107%; in assay [4] (capsanthin 0.00663 ppm) it was 114%; in assay [4] (capsanthin 0.0221 ppm), 111%; in assay [4] (capsanthin 0.0663 ppm), 126%. Further, the “effect compared with paprika pigment (in words)” value in assay [3] (Tables 3 to 5 (25 °C, 35 °C, sodium chloride), same concentrations of capsanthin) is reported as “comparable effect to that of the paprika pigment”.
